Results from patent US11583538B2, “Substituted pyrrolo[1,2-a]pyrazines and pyrrolo[1,2-a][1,4]diazepines as TREX1 inhibitors” (Venenum Biodesign, LLC, priority 2019, dated 2023).

Legend:
human TREX1 = human TREX1 (Homo sapiens (Human), UniProt Q9NSU2); experiment: TREX1 Exonuclease Assay; type: biochemical
Method: For human TREX1, the nucleotide sequence of the gene construct was codon optimized for expression in the bacterial host. The sequence was incorporated into the pMAL-c5e vector (NEB) downstream of a solubility-promoting MBP (maltose binding protein) fusion partner. The fusion protein product was expressed in E. coli strain BL21 (DE3) (Millipore) and purified in a series of chromatographic steps. Initial steps were conducted using a dextrin sepharose affinity column followed by a Q-sepharose ion exchange column (both GE Healthcare). After the second column the MBP partner was removed by incubation with enterokinase (NEB). Further purification was carried out with the second application of a Q-sepharose column followed by a Superdex 75 (GE Healthcare) size exclusion column. Finally, a heparin sepharose column (GE Healthcare) was applied to remove contaminating nucleotides.
To evaluate the effect of compounds on TREX1 activity, test compounds were serially diluted (11-point, 3-fold) from 10 mM stock solutions and delivered to 384-well low-volume assay plates in 80 nL DMSO using an acoustic dispenser. Next, 4 μL of human TREX1 (0.5 nM), or murine TREX1 (1 nM), diluted in assay buffer (20 mM Tris pH 7.5, 5 mM MgCl2, 100 μg/mL BSA, 0.002% Triton X-100, 2 mM DTT), was added to the assay plate. After incubating for 30 minutes, 4 μL of labeled DNA oligonucleotide (500 nM) in assay buffer was added to initiate TREX1 exonuclease activity. The reaction was allowed to proceed for 45 minutes at room temperature prior to the addition of 4 μL of 150 mM EDTA to halt TREX1 activity.

[1] = test system: THP1 Dual cells, ISRE Lucia reporter gene, transfected with G3-YSD DNA; experiment: Human Cellular EC50 Reporter Assay; type: cell-based; conditions: 72 h, serum-starved cells transfected with G3-YSD 10 ng/ml, three days
Source text: Example E is a cell-based assay for TREX1 inhibitors using THP1 Dual™ cells (Invivogen), a human monocyte cell line that has stable integration of an Interferon Stimulated Response Element (ISRE) Lucia reporter gene. The Lucia gene encodes a secreted luciferase reporter protein, under the control of an ISG54 minimal promoter in conjunction with five IFN-stimulated response elements. Activation of the cGAS-STING pathway in THP1 Dual™ cells leads to enhanced luciferase secretion and increased luminescence.
A cell-based assay was established using THP1 Dual™ cells (InvivoGen), a human monocyte cell line that has stable integration of an Interferon Stimulated Response Element (ISRE) Lucia reporter gene. The Lucia gene encodes a secreted luciferase reporter protein, under the control of an ISG54 minimal promoter in conjunction with five IFN-stimulated response elements. Activation of the cGAS-STING pathway in these cells leads to enhanced luciferase secretion. Three days prior to the assay, cells were transferred to a T75 flask at a density of 3.0×10^5 cells/ml in 20 ml of serum-starved media (RPMI 1640 containing 1% Heat-Inactivated FBS, 1× Glutagro, 10 mM HEPES, 1 mM sodium pyruvate, 1×Pen/Strep, 100 μg/ml Normocin, 100 μg/ml Zeocin, 10 μg/ml Blasticidin). On the day of assay cells were collected by centrifugation, washed in 1×DPBS, and resuspended in the 1% serum media at 3.3×10^5 cells/ml. An aliquot of an aqueous solution of the DNA oligonucleotide G3-YSD (InvivoGen) at 1 mg/ml was diluted 100-fold into the transfection reagent LyoVec (InvivoGen) and incubated at ambient temperature for 50 min to allow complex formation. Test compounds in DMSO were transferred to a standard 96-well tissue culture plate via acoustic dispense of 0.54 μl per well. Serum-starved cells were batch transfected with complex at a final DNA concentration of 10 ng/ml for 60 min at ambient temperature before dispensing 180 ul (60,000 cells) per well into the assay plate. The assay plate was then incubated in a humidified chamber at 37° C. in 5% CO2 for three days. An aliquot of 10 μl was removed from each well to combine with 10 μl of the luciferase detection reagent, QUANTI-Luc™ Gold (InvivoGen) in a white 384-well plate. The luminescent signal was then read using an EnVision plate reader (Perkin Elmer). An EC50 for each compound was determined by plotting the signal as a function of log molar concentration and fitting to a four parameter logistic equation. (see Table 32).

MB49-Luc tumor = MB49-Luc tumor bearing mice; type: in vivo, C57BL/6 mice; conditions: 100 μg intra-tumoral Days 1, 3, 6, 9 plus 10 Gy radiation Day 0; by Day 20; vs vehicle alone, 10 Gy + vehicle, or Example 15B + vehicle
Source text: The efficacy of the TREX1 inhibitors of the present invention can also be measured in a variety of in vivo assays. Exemplary mammals that can provide models to test the effectiveness of the TREX1 inhibitors of the present invention as anticancer agents include, but are not limited to, mice. Models of tumor growth and other tumor measurements can be used to assess the effectiveness of the anticancer agents described in the current invention. Example F describes an in vivo model of tumor growth in C57BL/6 mice. Compounds of the present invention can be tested in this model for their ability to inhibit growth of tumors. Compounds of the present invention can be used in combinatorial strategies to maximizing the immunogenicity of radiation therapy (Vanpouille-Box (2017) Nature Commun. 8, 81658). […] Ten week old female C57BL/6 mice were purchased from Jackson Laboratory (www.jax.org). During the study, the care and use of animals was conducted in accordance with the regulations of the Association for Assessment and Accreditation of Laboratory 15 Animal Care (AAALAC). […] Tumors were measured in two dimensions using calipers. Tumor volumes were calculated using the formula: volume (mm3)=(length×width2)/2. […]

Sequence of human TREX1 (Q9NSU2 whole entry, the tested form may be a part): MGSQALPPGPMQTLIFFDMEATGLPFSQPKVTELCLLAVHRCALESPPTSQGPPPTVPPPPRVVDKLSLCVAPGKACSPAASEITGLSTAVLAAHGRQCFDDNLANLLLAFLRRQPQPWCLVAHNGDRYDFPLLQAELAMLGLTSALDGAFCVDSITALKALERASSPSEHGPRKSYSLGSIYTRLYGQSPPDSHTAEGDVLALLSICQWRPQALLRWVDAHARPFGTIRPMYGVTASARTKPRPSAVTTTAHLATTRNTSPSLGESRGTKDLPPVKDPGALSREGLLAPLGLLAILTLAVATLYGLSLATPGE

Structure (SMILES)	IC50 (human TREX1)	EC50 [1]	Tumor volume (MB49-Luc tumor)
CCOc1c(CNC(=O)[C@@H](CCC(=O)O)N2CCC(CCc3ccccc3)N3C[C@H](N)C[C@H]3C2=O)ccc(Cl)c1Cl (stereo partly shown) [Example 137]	< 1000 nM	< 1000 nM	
N[C@@H]1C[C@H]2C(=O)N([C@H](CCC(=O)O)C(=O)NCc3ccc(Cl)c(Cl)c3F)CCC(CCc3ccccc3)N2C1 (stereo partly shown) [Example 30]	< 1000 nM	1000 to 10000 nM	
N[C@@H]1C[C@H]2C(=O)N([C@H](CCc3nnn[nH]3)C(=O)NCc3ccc(Cl)c(Cl)c3F)CCC(CCc3ccccc3)N2C1 (stereo partly shown) [Example 120]	< 1000 nM	1000 to 10000 nM	
COc1c(CNC(=O)[C@@H](CCC(=O)O)N2CCC(CCc3ccccc3)N3C[C@H](N)C[C@H]3C2=O)ccc(Cl)c1Cl (stereo partly shown) [Example 22]	< 1000 nM	< 1000 nM	
CC(C)Oc1c(CNC(=O)[C@@H](CCC(=O)O)N2CCC(CCc3ccccc3)N3C[C@H](N)C[C@H]3C2=O)ccc(Cl)c1Cl (stereo partly shown) [Example 138]	< 1000 nM	< 1000 nM	
COc1c(CNC(=O)[C@@H](CCc2nnn[nH]2)N2CCC(CCc3ccccc3)N3C[C@H](N)C[C@H]3C2=O)ccc(Cl)c1Cl (stereo partly shown) [Example 119]	< 1000 nM	< 1000 nM	
N[C@@H]1C[C@H]2C(=O)N([C@H](CCC(=O)O)C(=O)NCc3ccc(Cl)c(Cl)c3)CCC(CCc3ccccc3)N2C1 (stereo partly shown) [Example 15B]			reduced tumor volumes
